The record followed here is PubChem BioAssay (NCI).

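The compound was tested at five concentrations on cells cultured in 96-well plates, with a 48-hour exposure period. GI50 = concentration required for 50% inhibition of growth. At the TGI there is no net growth.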

Test systems include A549 NSCLC; IGROV1 ovarian; LOX IMVI melanoma; MALME-3M melanoma; OVCAR-3 ovarian; SF-268 CNS; SF-295 CNS; SN12C renal; UACC-257 melanoma.
Assay in all cases: NCI tumour cell line growth inhibition, 48 h

Take `COc1cc2c(Cc3cc(OCc4ccccc4)ccc3N)nccc2c(OC)c1OC`: the TGI in the experiment with A549 NSCLC, in the experiment on IGROV1 ovarian, in the experiment on LOX IMVI melanoma, with MALME-3M melanoma, in the experiment with OVCAR-3 ovarian and with SF-268 CNS was greater than 10 µM in each case. For the same compound, the TGI in the experiment with SF-295 CNS, in the experiment on SN12C renal and in the experiment on UACC-257 melanoma was greater than 10 µM in each case.
`CC1=C(C(=O)Nc2ccccc2C)C(c2ccccc2C)C(C(=O)Nc2ccccc2C)=C(C)N1`: the TGI in the experiment with A549 NSCLC was greater than 100 µM; with IGROV1 ovarian it was 40.1 µM; with LOX IMVI melanoma, 30.3 µM; with MALME-3M melanoma it was 38.2 µM; in the experiment with OVCAR-3 ovarian, 34.7 µM; with SF-268 CNS, 69.5 µM. Moreover, the figures for the TGI in the experiment on SF-295 CNS, in the experiment on SN12C renal and with UACC-257 melanoma were 44.2 µM, 35.8 µM and 72.6 µM, respectively.
On to `COC(=O)C1C(/C=C/c2ccoc2)ON2CCC[C@@H]12` (stereo partly drawn), for which the TGI in the experiment with A549 NSCLC, with LOX IMVI melanoma, in the experiment on MALME-3M melanoma, in the experiment with OVCAR-3 ovarian, in the experiment with SF-268 CNS and in the experiment on SF-295 CNS was greater than 100 µM in each case. The TGI with SN12C renal and in the experiment with UACC-257 melanoma was greater than 100 µM throughout.
Regarding `O=c1[nH]cnc2c1ncn2CCCCO`, the TGI in the experiment on A549 NSCLC, in the experiment on IGROV1 ovarian, with LOX IMVI melanoma, in the experiment with MALME-3M melanoma, in the experiment on OVCAR-3 ovarian and in the experiment with SF-268 CNS was greater than 100 µM each time. For the same compound, the TGI with SF-295 CNS, with SN12C renal and in the experiment with UACC-257 melanoma was greater than 100 µM throughout.
With `NS(=O)(=O)c1ccc(NC(=O)c2cccc3c(Nc4ccc(S(N)(=O)=O)cc4)c4ccccc4nc23)cc1`, the TGI with A549 NSCLC was greater than 100 µM; with IGROV1 ovarian it was greater than 100 µM; in the experiment on LOX IMVI melanoma, greater than 100 µM; in the experiment with MALME-3M melanoma, greater than 100 µM; with OVCAR-3 ovarian, 35.2 µM; with SF-268 CNS, 65.3 µM. The TGI in the experiment with SF-295 CNS, in the experiment on SN12C renal and in the experiment on UACC-257 melanoma was greater than 100 µM throughout.
Turning to `O=S(=O)(N/N=C/c1ccc(Cl)cc1Cl)c1ccccc1`, the TGI in the experiment with A549 NSCLC, in the experiment on IGROV1 ovarian, in the experiment with LOX IMVI melanoma, in the experiment with MALME-3M melanoma, in the experiment on OVCAR-3 ovarian and in the experiment on SF-268 CNS was greater than 100 µM each time. In addition, the TGI in the experiment with SF-295 CNS, in the experiment with SN12C renal and in the experiment with UACC-257 melanoma was greater than 100 µM each time.
Take `COc1ccc(/C=N\O[Si](C)(C)C(C)(C)C)cc1O[Si](C)(C)C(C)(C)C`: the TGI is 34.9 µM with A549 NSCLC; 36 µM in the experiment with IGROV1 ovarian; 36.5 µM in the experiment on LOX IMVI melanoma; 37.4 µM in the experiment with MALME-3M melanoma; 31 µM with OVCAR-3 ovarian; 39.4 µM in the experiment with SF-268 CNS. The figures for the TGI in the experiment on SF-295 CNS, in the experiment with SN12C renal and in the experiment with UACC-257 melanoma were 30.9 µM, 35.1 µM and 43.3 µM, respectively.
As for `O=c1cc(-c2ccc(O)cc2)oc2cc(O)cc(O)c12`, the TGI with A549 NSCLC is greater than 100 µM; with IGROV1 ovarian it was 80 µM; in the experiment with LOX IMVI melanoma, 86.6 µM; in the experiment with MALME-3M melanoma, 88.3 µM; with OVCAR-3 ovarian it was 91.9 µM; in the experiment with SF-268 CNS, 83.9 µM. Also, the TGI with SF-295 CNS is 83.4 µM; in the experiment with SN12C renal it was greater than 100 µM; in the experiment on UACC-257 melanoma, 73.9 µM.
Consider `CCOC(=O)C1Oc2ccc([N+](=O)[O-])cc2C1(C)O` (stereo not drawn), for which the TGI with A549 NSCLC, with IGROV1 ovarian, in the experiment on LOX IMVI melanoma, in the experiment with MALME-3M melanoma, in the experiment with OVCAR-3 ovarian and with SF-268 CNS was greater than 100 µM in each case. The TGI with SF-295 CNS, in the experiment on SN12C renal and with UACC-257 melanoma was greater than 100 µM each time.
As to `CCOC(=O)/C=C1\Oc2ccccc2C1(C)O` (stereo not drawn), the TGI in the experiment on A549 NSCLC, with IGROV1 ovarian, with LOX IMVI melanoma, in the experiment on MALME-3M melanoma, in the experiment with OVCAR-3 ovarian and in the experiment on SF-268 CNS was greater than 100 µM throughout. Further, the TGI with SF-295 CNS, in the experiment with SN12C renal and in the experiment on UACC-257 melanoma was greater than 100 µM each time.
On to `Cc1cccc(N=C2NC(=O)C(CC(=O)Nc3ccccc3Cl)S2)c1` (stereo not drawn), for which the TGI with A549 NSCLC, with IGROV1 ovarian, in the experiment with LOX IMVI melanoma, with MALME-3M melanoma, with OVCAR-3 ovarian and in the experiment on SF-268 CNS was greater than 100 µM throughout. The TGI in the experiment on SF-295 CNS, in the experiment with SN12C renal and with UACC-257 melanoma was greater than 100 µM throughout.
As to `COc1ccc2c(c1)C=C1CSCC3=Cc4cc(OC)ccc4OC13O2`, the GI50 with A549 NSCLC is 0.492 µM; in the experiment on IGROV1 ovarian it was 0.608 µM; with LOX IMVI melanoma it was 0.656 µM; with MALME-3M melanoma it was 0.473 µM; in the experiment with OVCAR-3 ovarian, 0.295 µM; in the experiment with SF-268 CNS, 2.86 µM. For the same compound, the results for the GI50 in the experiment on SF-295 CNS, in the experiment on SN12C renal and in the experiment with UACC-257 melanoma were 0.316 µM, 0.723 µM and greater than 100 µM, respectively. The TGI in the experiment on A549 NSCLC is greater than 100 µM; in the experiment with IGROV1 ovarian, greater than 100 µM; in the experiment on LOX IMVI melanoma, greater than 100 µM; in the experiment on MALME-3M melanoma, greater than 100 µM; in the experiment on OVCAR-3 ovarian, 0.884 µM; with SF-268 CNS it was greater than 100 µM. Also, the TGI in the experiment on SF-295 CNS, in the experiment on SN12C renal and in the experiment with UACC-257 melanoma was greater than 100 µM throughout.
Take `O=C(CC(=O)c1ccccc1)C(=O)NC12CC3CC(CC(C3)C1)C2`: the TGI in the experiment on A549 NSCLC was greater than 100 µM; in the experiment on IGROV1 ovarian it was greater than 100 µM; in the experiment with LOX IMVI melanoma, greater than 50 µM; in the experiment with MALME-3M melanoma it was greater than 100 µM; in the experiment with OVCAR-3 ovarian, greater than 100 µM; in the experiment on SF-268 CNS, greater than 100 µM. The TGI in the experiment on SF-295 CNS, in the experiment on SN12C renal and in the experiment with UACC-257 melanoma was greater than 100 µM throughout.
As for `NNC(=S)N/N=C(/C(=O)Nc1ccc([N+](=O)[O-])cc1)c1nc2ccc([N+](=O)[O-])cc2[nH]c1=O`, the TGI in the experiment on A549 NSCLC, in the experiment on IGROV1 ovarian, in the experiment on LOX IMVI melanoma, in the experiment on MALME-3M melanoma, with SF-268 CNS and with SF-295 CNS was greater than 100 µM in each case. Moreover, the TGI with SN12C renal and in the experiment on UACC-257 melanoma was greater than 100 µM throughout.
